Measurements: ChEMBL document CHEMBL1201862, “PubChem BioAssay data set” (2004)
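All cell lines were grown in 96-well plates and treated with compound for 48 hours. GI50 = concentration required for 50% inhibition of growth.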 Active and inactive are the calls of the source. No stated cut-off is given here; in the data, active = GI50 up to about 1.1 µM and inactive = higher.

Key:
Experiment in all cases: NCI tumour cell line growth inhibition, 48 h
SK-MEL-5 = system: SK-MEL-5
SF-268 = system: SF-268
U-251 = system: U-251
NCI/ADR-RES = system: NCI/ADR-RES
HOP-92 = system: HOP-92
SR = system: SR
Hs-578T = system: Hs-578T
MOLT-4 = system: MOLT-4
SW-620 = system: SW-620
BT-549 = system: BT-549
CCRF-CEM = system: CCRF-CEM
NCI-H460 = system: NCI-H460
COLO 205 = system: COLO 205
HL-60 = system: HL-60
HOP-62 = system: HOP-62
SF-295 = system: SF-295
OVCAR-4 = system: OVCAR-4
A498 = system: A498
RXF 393 = system: RXF 393
HCT-15 = system: HCT-15
MDA-N = system: MDA-N
SN12C = system: SN12C
HT-29 = system: HT-29
Malme-3M = system: Malme-3M
T47D = system: T47D
UO-31 = system: UO-31
CAKI-1 = system: CAKI-1
IGROV-1 = system: IGROV-1
NCI-H522 = system: NCI-H522
SK-MEL-28 = system: SK-MEL-28
MCF7 = system: MCF7
SF-539 = system: SF-539
MDA-MB-435 = system: MDA-MB-435
A549 = system: A549
TK-10 = system: TK-10
786-0 = system: 786-0
DU-145 = system: DU-145
K562 = system: K562
ACHN = system: ACHN
UACC-257 = system: UACC-257
NCI-H23 = system: NCI-H23
SNB-19 = system: SNB-19
LOX IMVI = system: LOX IMVI
M14 = system: M14
KM12 = system: KM12
HCC 2998 = system: HCC 2998
MDA-MB-231 = system: MDA-MB-231
PC-3 = system: PC-3
UACC-62 = system: UACC-62
OVCAR-8 = system: OVCAR-8
HCT-116 = system: HCT-116
NCI-H226 = system: NCI-H226
RPMI-8226 = system: RPMI-8226
SK-MEL-2 = system: SK-MEL-2
OVCAR-5 = system: OVCAR-5
SNB-75 = system: SNB-75
SK-OV-3 = system: SK-OV-3
EKVX = system: EKVX
OVCAR-3 = system: OVCAR-3

CC(=O)OCC1OC(n2c3c(cc(C#N)c2=S)CCC3)C(OC(C)=O)C(OC(C)=O)C1OC(C)=O (centres undefined)
GI50 (SK-MEL-5): > 100 µM (inactive)
GI50 (SF-268): > 100 µM (inactive)
GI50 (U-251): > 100 µM (inactive)
GI50 (NCI/ADR-RES): > 100 µM (inactive)
GI50 (HOP-92): > 100 µM (inactive)
GI50 (SR): 68.4 µM (inactive)
GI50 (Hs-578T): > 100 µM (inactive)
GI50 (MOLT-4): 33.9 µM (inactive)
GI50 (SW-620): > 100 µM (inactive)
GI50 (BT-549): > 100 µM (inactive)
GI50 (CCRF-CEM): > 100 µM (inactive)
GI50 (NCI-H460): > 100 µM (inactive)
GI50 (COLO 205): > 100 µM (inactive)
GI50 (HL-60): > 100 µM (inactive)
GI50 (HOP-62): > 100 µM (inactive)
GI50 (SF-295): > 100 µM (inactive)
GI50 (OVCAR-4): > 100 µM (inactive)
GI50 (A498): > 100 µM (inactive)
GI50 (RXF 393): > 100 µM (inactive)
GI50 (HCT-15): > 100 µM
GI50 (MDA-N): > 100 µM (inactive)
GI50 (SN12C): > 100 µM (inactive)
GI50 (HT-29): > 100 µM (inactive)
GI50 (Malme-3M): > 100 µM (inactive)
GI50 (T47D): > 100 µM (inactive)
GI50 (UO-31): > 100 µM (inactive)
GI50 (CAKI-1): > 100 µM (inactive)
GI50 (IGROV-1): > 100 µM (inactive)
GI50 (NCI-H522): > 100 µM (inactive)
GI50 (SK-MEL-28): > 100 µM (inactive)
GI50 (MCF7): > 100 µM (inactive)
GI50 (SF-539): > 100 µM (inactive)
GI50 (MDA-MB-435): > 100 µM (inactive)
GI50 (A549): > 100 µM (inactive)
GI50 (TK-10): > 100 µM (inactive)
GI50 (786-0): > 100 µM (inactive)
GI50 (DU-145): > 100 µM (inactive)
GI50 (K562): > 100 µM (inactive)
GI50 (ACHN): > 100 µM (inactive)
GI50 (UACC-257): > 100 µM (inactive)
GI50 (NCI-H23): > 100 µM (inactive)
GI50 (SNB-19): > 100 µM (inactive)
GI50 (LOX IMVI): > 100 µM (inactive)
GI50 (M14): > 100 µM (inactive)
GI50 (KM12): > 100 µM (inactive)
GI50 (HCC 2998): > 100 µM (inactive)
GI50 (MDA-MB-231): > 100 µM (inactive)
GI50 (PC-3): > 100 µM (inactive)
GI50 (UACC-62): > 100 µM (inactive)
GI50 (OVCAR-8): > 100 µM (inactive)
GI50 (HCT-116): > 100 µM (inactive)
GI50 (NCI-H226): > 100 µM (inactive)
GI50 (RPMI-8226): > 100 µM (inactive)
GI50 (SK-MEL-2): > 100 µM (inactive)
GI50 (OVCAR-5): > 100 µM (inactive)
GI50 (SNB-75): 68.1 µM (inactive)

CC(=O)N(CCc1ccccc1)C(C)(C#N)c1ccccc1 (centres undefined)
GI50 (SK-MEL-5): > 100 µM (inactive)
GI50 (SF-268): > 100 µM (inactive)
GI50 (U-251): > 100 µM (inactive)
GI50 (NCI/ADR-RES): > 100 µM (inactive)
GI50 (SK-OV-3): > 100 µM (inactive)
GI50 (HOP-92): > 100 µM (inactive)
GI50 (SR): > 100 µM (inactive)
GI50 (Hs-578T): > 100 µM (inactive)
GI50 (MOLT-4): > 100 µM (inactive)
GI50 (SW-620): > 100 µM (inactive)
GI50 (BT-549): > 100 µM (inactive)
GI50 (CCRF-CEM): > 100 µM (inactive)
GI50 (COLO 205): > 100 µM (inactive)
GI50 (HL-60): > 100 µM (inactive)
GI50 (HOP-62): > 100 µM (inactive)
GI50 (SF-295): > 100 µM (inactive)
GI50 (OVCAR-4): > 100 µM (inactive)
GI50 (A498): > 100 µM (inactive)
GI50 (EKVX): > 100 µM (inactive)
GI50 (RXF 393): > 100 µM (inactive)
GI50 (HCT-15): > 100 µM
GI50 (MDA-N): > 100 µM (inactive)
GI50 (SN12C): > 100 µM (inactive)
GI50 (HT-29): > 100 µM (inactive)
GI50 (Malme-3M): > 100 µM (inactive)
GI50 (T47D): > 100 µM (inactive)
GI50 (UO-31): > 100 µM (inactive)
GI50 (CAKI-1): > 100 µM (inactive)
GI50 (IGROV-1): > 100 µM (inactive)
GI50 (NCI-H522): > 100 µM (inactive)
GI50 (SK-MEL-28): > 100 µM (inactive)
GI50 (MCF7): > 100 µM (inactive)
GI50 (SF-539): > 100 µM (inactive)
GI50 (MDA-MB-435): > 100 µM (inactive)
GI50 (A549): > 100 µM (inactive)
GI50 (TK-10): > 100 µM (inactive)
GI50 (786-0): > 100 µM (inactive)
GI50 (DU-145): > 100 µM (inactive)
GI50 (K562): > 100 µM (inactive)
GI50 (ACHN): > 100 µM (inactive)
GI50 (UACC-257): > 100 µM (inactive)
GI50 (NCI-H23): > 100 µM (inactive)
GI50 (SNB-19): > 100 µM (inactive)
GI50 (LOX IMVI): > 100 µM (inactive)
GI50 (M14): > 100 µM (inactive)
GI50 (KM12): > 100 µM (inactive)
GI50 (HCC 2998): > 100 µM (inactive)
GI50 (MDA-MB-231): > 100 µM (inactive)
GI50 (PC-3): > 100 µM (inactive)
GI50 (OVCAR-3): > 100 µM (inactive)
GI50 (UACC-62): > 100 µM (inactive)
GI50 (OVCAR-8): > 100 µM (inactive)
GI50 (HCT-116): > 100 µM (inactive)
GI50 (NCI-H226): > 100 µM (inactive)
GI50 (RPMI-8226): > 100 µM (inactive)
GI50 (SK-MEL-2): > 100 µM (inactive)
GI50 (OVCAR-5): > 100 µM (inactive)
GI50 (SNB-75): > 100 µM (inactive)
